# From patent US6984635B1, “Dimerizing agents, their production and use” (Board of Trustees of The Leland Stanford Jr. University, priority 1998, dated 2006)
# How the values were obtained:
# Format in all cases: cell-based
# CTLL-2 cells = experiment: inhibition of proliferation of CTLL-2 cells (toxicity)
# Method: The toxicity of the lead compounds was tested by their ability to inhibit the proliferation of CTLL-2 cells, which are IL-2 dependent and highly sensitive to rapamycin (IC50<1 nM).
# [1] = molecular target: T1, Gal4-FKBP3 / wild type FRB-VP16 (Homo sapiens, UniProt P42345+P62942); experiment: activation of transcription in Jurkat cells transfected with Gal4-FKBP3, wild type FRB-VP16 and UAS-SEAP
# T1 construct: Jurkat cells transfected with Gal4-FKBP3, wild type FRB-VP16, and UAS-SEAP; expressed in transfected cells; host or cells: Jurkat cells
# Description: The ability of the rapalogs to multimerize chimeric proteins may be measured in cell-based assays by measuring the occurrence of an event triggered by such multimerization. For instance, one may use cells containing and capable of expressing DNA encoding a first chimeric protein comprising one or more FKBP-domains and one or more effector domains as well as DNA encoding a second chimeric protein containing an FRB domain and one or more effector domains capable, upon multimerization, of actuating a biological response. We prefer to use cells which further contain a reporter gene under the transcriptional control of a regulatory element (i.e., promoter) which is responsive to the multimerization of the chimeric proteins. The design and preparation of illustrative components and their use in so engineered cells is described in WO96/41865 and the other international patent applications referred to in this and the foregoing section. The cells are grown or maintained in culture. A rapalog is added to the culture medium and after a suitable incubation period (to permit gene expression and secretion, e.g. several hours or overnight) the presence of the reporter gene product is measured. Positive results, i.e., multimerization, correlates with transcription of the reporter gene as observed by the appearance of the reporter gene product. […]
# [2] = molecular target: T2, Gal4-FKBP3 / FRB*-VP16 (FRB harboring T2098L, W2101F, and K2095P) (Homo sapiens, UniProt P42345+P62942, K2095P/T2098L/W2101F); experiment: activation of transcription in Jurkat cells transfected with Gal4-FKBP3, FRB*-VP16 and UAS-SEAP; settings: for amplitude of reporter gene activity: FRB*-VP16, compared with rapamycin/wild type FRB-VP16 system; for EC50: FRB*-VP16 replaces wild type FRB-VP16, read-out: EC50 of reporter gene activity
# T2 construct: FRB*-VP16 (FRB harboring T2098L, W2101F, and K2095P) replaces wild type FRB-VP16; expressed in transfected cells; host or cells: Jurkat cells
# Description: The ability of the rapalogs to multimerize chimeric proteins may be measured in cell-based assays by measuring the occurrence of an event triggered by such multimerization. For instance, one may use cells containing and capable of expressing DNA encoding a first chimeric protein comprising one or more FKBP-domains and one or more effector domains as well as DNA encoding a second chimeric protein containing an FRB domain and one or more effector domains capable, upon multimerization, of actuating a biological response. We prefer to use cells which further contain a reporter gene under the transcriptional control of a regulatory element (i.e., promoter) which is responsive to the multimerization of the chimeric proteins. The design and preparation of illustrative components and their use in so engineered cells is described in WO96/41865 and the other international patent applications referred to in this and the foregoing section. The cells are grown or maintained in culture. A rapalog is added to the culture medium and after a suitable incubation period (to permit gene expression and secretion, e.g. several hours or overnight) the presence of the reporter gene product is measured. Positive results, i.e., multimerization, correlates with transcription of the reporter gene as observed by the appearance of the reporter gene product. The reporter gene product may be a conveniently detectable protein (e.g. by ELISA) or may catalyze the production of a conveniently detectable product (e.g. colored). Materials and methods for producing appropriate cell lines for conducting such assays are disclosed in the international patent applications cited above in this section. Typically used target genes include by way of example SEAP, hGH, beta-galactosidase, Green Fluorescent Protein and luciferase, for which convenient assays are commercially available.
# Likewise, C3-allyl rapamycin and C3-methallyl rapamycin were impaired in their ability to activate transcription in Jurkat cells transfected with Gal4-FKBP3, wild type FRB-VP16, and UAS-SEAP. […] C3 derivatives of rapamycin have impaired toxicity (immunosuppressive activity) and can be used efficiently as dimerizers in conjunction with engineered FRB domains. Preparation of 24(S),30(S)-tetrahydro-C3-rapalogs [drawing 30]
# T2 sequence (P62942 2-108 limits assumed): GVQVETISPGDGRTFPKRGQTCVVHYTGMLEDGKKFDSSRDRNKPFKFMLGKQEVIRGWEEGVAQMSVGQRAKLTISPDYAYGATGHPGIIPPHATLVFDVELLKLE
# T2 sequence (P42345 2012-2144 K2095P/T2098L/W2101F limits assumed): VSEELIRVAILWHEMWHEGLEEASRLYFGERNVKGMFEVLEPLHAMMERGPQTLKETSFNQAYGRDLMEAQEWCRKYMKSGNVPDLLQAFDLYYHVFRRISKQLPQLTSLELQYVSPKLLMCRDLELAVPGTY
# T1 sequence (P62942 2-108 limits assumed): as the sequence (P62942 2-108 limits assumed) above
# T1 sequence (P42345 2012-2144 limits assumed): as the sequence (P42345 2012-2144 K2095P/T2098L/W2101F limits assumed) above, with P84K, L87T, F90W counted along it
Compound,IC50 (CTLL-2 cells; IL-2 dependent CTLL-2 cells),ability to activate transcription (SEAP reporter) [1],amplitude of reporter gene activity [2],EC50 [2],effect on proliferation of CTLL-2 cells (CTLL-2 cells; incubation with 1 μM compound)
Rapamycin [reference compound],< 1 nM,,,,
"C=CCC1C=CC(C)=CCC2CCC(C)C(O)(O2)C(=O)C(=O)N2CCCCC2C(=O)OC(C(C)CC2CCC(O)C(OC)C2)CC(=O)C(C)C=C(C)C(O)C(OC)C(=O)C(C)CC(C)C=C1 (centres unmarked) [C3-allyl rapamycin, 3-allyl-rapamycin]",,impaired,higher than that elicited by the rapamycin/wild type FRB-VP16 system,~10 nM,
"C=C(C)CC1C=CC(C)=CCC2CCC(C)C(O)(O2)C(=O)C(=O)N2CCCCC2C(=O)OC(C(C)CC2CCC(O)C(OC)C2)CC(=O)C(C)C=C(C)C(O)C(OC)C(=O)C(C)CC(C)C=C1 (centres unmarked) [C3-methallyl rapamycin, 3-methallyl-rapamycin]",,impaired,higher than that elicited by the rapamycin/wild type FRB-VP16 system,~10 nM,no detectable effect
